Source: ChEMBL document CHEMBL1201862, “PubChem BioAssay data set” (2004)
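Compound exposure: 48 hours, 5 concentrations, 96-well plates. GI50 marks 50% less growth.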 Active and inactive are the calls of the source. Rule as the data show it: active = GI50 up to about 1.1 µM and inactive = higher.

Columns and labels:
Assay in all cases: NCI anticancer screen, dose series, 48 h
786-0 = test system: 786-0
A549 = test system: A549
EKVX = test system: EKVX
HCC 2998 = test system: HCC 2998
HCT-15 = test system: HCT-15
IGROV-1 = test system: IGROV-1
LOX IMVI = test system: LOX IMVI
Malme-3M = test system: Malme-3M
NCI-H226 = test system: NCI-H226
NCI-H23 = test system: NCI-H23
NCI-H522 = test system: NCI-H522
OVCAR-3 = test system: OVCAR-3
SF-295 = test system: SF-295
SK-MEL-28 = test system: SK-MEL-28
SK-MEL-5 = test system: SK-MEL-5
SR = test system: SR
TK-10 = test system: TK-10
U-251 = test system: U-251
UACC-257 = test system: UACC-257
UACC-62 = test system: UACC-62

Structure (SMILES) | GI50 (786-0) | GI50 (A549) | GI50 (EKVX) | GI50 (HCC 2998) | GI50 (HCT-15) [µM] | GI50 (IGROV-1) | GI50 (LOX IMVI) | GI50 (Malme-3M) | GI50 (NCI-H226) | GI50 (NCI-H23) | GI50 (NCI-H522) | GI50 (OVCAR-3) | GI50 (SF-295) | GI50 (SK-MEL-28) | GI50 (SK-MEL-5) | GI50 (SR) | GI50 (TK-10) | GI50 (U-251) | GI50 (UACC-257) | GI50 (UACC-62)
Oc1nc(-c2ccc3ccccc3c2)nc2ccccc12 | 6.89 µM (inactive) | 26.9 µM (inactive) | 43.5 µM (inactive) | 62.5 µM (inactive) | > 100 | 19.8 µM (inactive) | > 100 µM (inactive) | 33.6 µM (inactive) | 12.6 µM (inactive) | 58.5 µM (inactive) | 73.8 µM (inactive) | 35.4 µM (inactive) | 23.4 µM (inactive) | > 100 µM (inactive) | > 100 µM (inactive) | 20.4 µM (inactive) | 0.771 µM (active) | 25.5 µM (inactive) | 74.6 µM (inactive) | > 100 µM (inactive)
Oc1c(N2CCOCC2)cc(-c2cc(N3CCOCC3)c(O)c3ccccc23)c2ccccc12 | 1.63 µM (inactive) | 2.26 µM (inactive) | 11.7 µM (inactive) | 2.04 µM (inactive) | 2.31 | 2.4 µM (inactive) | 1.77 µM (inactive) | 0.486 µM (active) | 10.1 µM (inactive) | 2.28 µM (inactive) | 2.23 µM (inactive) | 2.47 µM (inactive) | 1.71 µM (inactive) | 1.75 µM (inactive) | 0.422 µM (active) | 0.659 µM (active) | 12.9 µM (inactive) | 1.82 µM (inactive) | 2.29 µM (inactive) | 2.13 µM (inactive)
C=C1C(=O)OC2C1C(OC(=O)/C(C)=C/C)CC(O)(CCl)C1C(O)C=C(C)C21O (stereo not given) | 4.88 µM (inactive) | 28.7 µM (inactive) | 12 µM (inactive) | 12.6 µM (inactive) | 3.72 | 14.9 µM (inactive) | 4.89 µM (inactive) | 2.22 µM (inactive) | 19.1 µM (inactive) | 13.8 µM (inactive) | 1.43 µM (inactive) | 11.9 µM (inactive) | 53 µM (inactive) | 13.3 µM (inactive) | 11 µM (inactive) | 3.94 µM (inactive) | 14.1 µM (inactive) | 27.5 µM (inactive) | 12.1 µM (inactive) | 12.5 µM (inactive)
CCCCOC(C)(C)/C=C/C(O)[C@](C)(O)[C@H]1[C@H](O)C[C@@]2(C)[C@@H]3CCc4c(cc(OC5OC(CO)C(O)C(O)C5O)c(O)c4C)C3(C)C(=O)C[C@]12C (stereo not given in full) | > 100 µM (inactive) | > 100 µM (inactive) | > 100 µM (inactive) | > 100 µM (inactive) | > 100 | > 100 µM (inactive) | > 100 µM (inactive) | > 100 µM (inactive) | > 100 µM (inactive) | > 100 µM (inactive) | > 100 µM (inactive) | > 100 µM (inactive) | > 100 µM (inactive) | > 100 µM (inactive) | > 100 µM (inactive) | > 100 µM (inactive) | > 100 µM (inactive) | > 100 µM (inactive) | > 100 µM (inactive) | > 100 µM (inactive)
Nc1ncnc2c1nc(Cl)n2[C@@H]1O[C@@H]2COP(=O)(O)O[C@H]2[C@H]1O [TOCLADESINE] | 8.85 µM (inactive) | 22.8 µM (inactive) | 35.6 µM (inactive) | 37.8 µM (inactive) | 6.7 | 24.5 µM (inactive) | 2.7 µM (inactive) | 152 µM (inactive) | 6.18 µM (inactive) | 16.5 µM (inactive) | 27.1 µM (inactive) | 44.9 µM (inactive) | 51.2 µM (inactive) | 295 µM (inactive) | 152 µM (inactive) | 4.7 µM (inactive) | 15.1 µM (inactive) | 67.8 µM (inactive) | 42.6 µM (inactive) | 15.7 µM (inactive)
